In PMC6273687, “Design, Synthesis and Biological Evaluation of Novel Primaquine-Cinnamic Acid Conjugates of the Amide and Acylsemicarbazide Type” (Molecules, 2016):

Tests used:
[1] = system: L1210 murine lymphocytic leukemia cell line; test: Growth inhibition of tumor cell lines in vitro (MTT / cell counting); type: cell-based; details: Mus musculus, 96 h; L1210, 4 days
Description: (§1) The experiments were carried out on a murine lymphocytic leukemia cell line (L1210) and five human tumor cell lines: CEM, HeLa, NCI-H460, SW 620 and MCF-7. The cells were cultured as monolayers and maintained in Dulbecco′s modified Eagle medium (DMEM) supplemented with 10% fetal bovine serum (FBS), 2 mM L-glutamine, 100 U/mL penicillin and 100 μg/mL streptomycin in a humidified atmosphere with 5% CO2 at 37 °C.
(§2) The growth inhibition activity of the compounds was assessed as described previously. The cell lines were inoculated onto a series of standard 96-well microtiter plates on day 0, at 1.5 × 10^4 cells/mL (SW 620, H460) to 2.5 × 10^4 cells/mL (MCF-7, CEM and L1210), depending on the growth of the tumor cell line. Test agents were then added in ten-fold dilutions (10^−8 to 10^−4 M) and the cell cultures were then incubated for 3–4 days with 5% CO2 at 37 °C. Working dilutions of the compounds were freshly prepared on the day of testing.
(§3) After 3 (MCF-7, SW 620, NCI-H460) or 4 days (CEM, L1210), the cell growth rate was evaluated first light microscopically, then by viable cell counting and/or by performing the MTT assay, which detects dehydrogenase activity in live, not dead, cells. The absorbance (A) was measured on a microplate reader at 570 nm. The absorbance is directly proportional to the number of living, metabolically active cells. […] If however, all of the tested concentrations produce PGs exceeding the respective reference level of effect (e.g., PG value of 50), then the highest tested concentration is assigned as the default value, which is preceded by a “>” sign. Minimum two individual experiments were carried out and each test point was performed in quadruplicate.

[2] = system: CEM acute lymphoblastic leukemia cell line; test: as above; type: cell-based; details: Homo sapiens, 96 h, 4 days
Description: as §1, §2, §3

[3] = system: HeLa cervical carcinoma cell line; test: as above; type: cell-based; details: Homo sapiens
Description: as §1, §2, §3

[4] = system: SW 620 colon carcinoma cell line; test: as above; type: cell-based; details: Homo sapiens, 72 h; SW 620, 3 days
Description: as §1, §2, §3

[5] = system: MCF-7 breast carcinoma cell line; test: as above; type: cell-based, human; details: Homo sapiens, MCF7, 72 h; MCF-7, 3 days
Description: as §1, §2, §3

lung adenocarcinoma A549 = test: Growth inhibition of tumor cell lines in vitro (reference drug); type: cell-based; details: Homo sapiens; lung adenocarcinoma A549 (footnote c, printed in NCI-H460 column)
[6] = system: NCI-H460 lung carcinoma cell line; test: Growth inhibition of tumor cell lines in vitro (MTT / cell counting); type: cell-based, human; details: Homo sapiens, 72 h; NCI-H460, 3 days
Description: as §1, §2, §3

colon carcinoma HCT 116 = test: Growth inhibition of tumor cell lines in vitro (reference drugs); type: cell-based; details: Homo sapiens; colon carcinoma HCT 116 (footnote b, printed in SW 620 column)
HEL cells = test: Cytotoxicity assay, alteration of HEL cell morphology (MCC); type: cell-based, human; details: 3 days
Description: Cytotoxicity measurements were based on the inhibition of HEL cell growth. Cells were seeded at 5 × 10^3 cells/well into 96-well microtiter plates. Then, medium containing different concentrations of the test compounds was added. After 3 days of incubation at 37 °C, the alteration of morphology of the cell cultures was recorded light microscopically. Cytotoxicity was expressed as MCC.

[7] = molecular target: T1, soybean lipoxygenase (LOX) (Glycine max, UniProt P08170); test: LOX inhibition study in vitro; type: biochemical; details: values in parentheses in Table 3
T1 construct: purchased Sigma-Aldrich
T1 sequence (P08170 1-839): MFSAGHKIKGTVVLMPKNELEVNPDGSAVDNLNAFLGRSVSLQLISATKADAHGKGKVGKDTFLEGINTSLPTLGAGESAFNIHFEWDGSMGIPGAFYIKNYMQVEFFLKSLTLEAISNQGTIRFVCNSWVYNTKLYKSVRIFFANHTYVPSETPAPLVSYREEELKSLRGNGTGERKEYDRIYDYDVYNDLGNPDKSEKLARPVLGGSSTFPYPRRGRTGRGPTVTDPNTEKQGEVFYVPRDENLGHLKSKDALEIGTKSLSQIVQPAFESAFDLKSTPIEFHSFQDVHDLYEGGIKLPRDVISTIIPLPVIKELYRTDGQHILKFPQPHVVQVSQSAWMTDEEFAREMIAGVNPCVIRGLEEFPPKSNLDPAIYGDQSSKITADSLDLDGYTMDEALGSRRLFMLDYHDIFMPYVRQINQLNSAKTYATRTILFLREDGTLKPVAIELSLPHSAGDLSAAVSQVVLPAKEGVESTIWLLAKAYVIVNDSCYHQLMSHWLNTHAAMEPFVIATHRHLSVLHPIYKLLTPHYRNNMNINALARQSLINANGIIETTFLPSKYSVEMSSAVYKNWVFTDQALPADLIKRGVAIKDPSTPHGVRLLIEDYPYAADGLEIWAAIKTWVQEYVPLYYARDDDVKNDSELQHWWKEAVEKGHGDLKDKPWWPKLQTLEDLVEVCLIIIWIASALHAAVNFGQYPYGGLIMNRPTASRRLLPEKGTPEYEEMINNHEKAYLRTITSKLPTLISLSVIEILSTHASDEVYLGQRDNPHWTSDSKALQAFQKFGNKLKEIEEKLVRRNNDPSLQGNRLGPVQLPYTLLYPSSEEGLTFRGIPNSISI
Description: LOX inhibitory assay in vitro was accomplished as described previously. The test compounds (stock solutions 10 mM in DMSO) were incubated at room temperature with sodium linoleate (c = 0.1 mM) and 0.2 mL of LOX enzyme solution (1/9 × 10^−4 m/V in saline). The conversion of sodium linoleate to 13-hydroperoxylinoleic acid was measured at 234 nm and compared with the reference inhibitor. Several concentrations were used for the IC50 determination.

[8] = Interaction with the stable radical DPPH (reducing ability)
Description: To a solution of DPPH in absolute ethanol the appropriate volume of the compounds (50 or 100 µM final concentrations) dissolved in DMSO was added. The absorbance was recorded at 517 nm after 20 and 60 min at room temperature. The experiments were repeated at least in triplicate and the standard deviation of absorbance was less than 10% of the mean. NDGA was used under the same experimental conditions as a reference compound.

[9] = Inhibition of linoleic acid peroxidation (AAPH-induced); details: 5 × 10^−5 M
Method in brief: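 Sodium linoleate (16 mM stock) in 0.05 M phosphate buffer pH 7.4 at 37 °C under air, peroxidation initiated by AAPH (40 mM stock) with test compound added. Conjugated diene formation followed at 234 nm; at least triplicate runs, Trolox as reference.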

| Compound | IC50 [1] | IC50 [2] | IC50 [3] | IC50 [4] | IC50 [5] | IC50 (lung adenocarcinoma A549) | IC50 [6] | IC50 (colon carcinoma HCT 116) | MCC (minimum cytotoxic concentration) (HEL cells) | IC50 [7] | DPPH-reducing ability RA (%) ([8]; 1 × 10^−4 M, 20 min) | DPPH-reducing ability RA (%) ([8]; 1 × 10^−4 M, 60 min) | DPPH-reducing ability RA (%) ([8]; 5 × 10^−5 M, 20 min) | DPPH-reducing ability RA (%) ([8]; 5 × 10^−5 M, 60 min) | LP Inhibition (%) [9] |
| --- | --- | --- | --- | --- | --- | --- | --- | --- | --- | --- | --- | --- | --- | --- | --- |
| CNC(=O)c1cc(Oc2ccc(NC(=O)Nc3ccc(Cl)c(C(F)(F)F)c3)cc2)ccn1 [SOR, sorafenib, reference compound] | 4.2 ± 2.4 µM | 3.2 ± 1.7 µM | 7.1 ± 2.6 µM | 7.1 ± 1.9 µM | 3.9 ± 1.6 µM | 6.1 ± 0.6 µM | – | – | – | – | – | – | – | – | – |
| O=c1[nH]cc(F)c(=O)[nH]1 [5-FU, 5-fluorouracil, reference compound] | 0.5 ± 0.2 µM | 18 ± 5 µM | 0.54 ± 0.1 µM | – | – | – | 3 ± 0.3 µM | 4 ± 0.7 µM | – | – | – | – | – | – | – |
| COc1ccc(/C=C/C(=O)NNC(=O)NCCCC(C)Nc2cc(OC)cc3cccnc23)cc1 (stereo not shown) [7c, (E)-1-(3-(4-Methoxyphenyl)acryloyl)-4-(4-(6-methoxyquinolin-8-ylamino)pentyl)semicarbazide] | 1.7 ± 0.4 µM | 1.3 ± 0.7 µM | 2.4 ± 0.2 µM | > 100 µM | 0.4 ± 0.2 µM | – | > 100 µM | – | around 20 μΜ | 50 µM | 39% | 100% | 54% | 100% | 89% |
| COc1cc(NC(C)CCCNC(=O)NNC(=O)/C=C/c2ccc(Cl)cc2)c2ncccc2c1 (stereo not shown) [7g, (E)-1-(3-(4-Chlorophenyl)acryloyl)-4-(4-(6-methoxyquinolin-8-ylamino)pentyl)semicarbazide] | 1.6 ± 0.7 µM | 0.9 ± 0.7 µM | 2.7 ± 1.2 µM | 21 ± 4 µM | 0.2 ± 0.2 µM | – | 20 ± 0.7 µM | – | around 20 μΜ | 70 µM | 100% | 100% | 66% | 100% | 89% |
